# From US20160237398A1, “METHODS OF MICROBIAL PRODUCTION OF EXCRETED PRODUCTS FROM METHANE AND RELATED BACTERIAL STRAINS” (UNIVERSITY OF WASHINGTON THROUGH ITS CENTER FOR …, priority 2013, published 2016)
# Assays:
# [1] = system: pyruvate kinase (pyk2, MALCv4_3080); experiment: Effect of effectors on activity of purified recombinant pyruvate kinase; assay type: biochemical, Methylomicrobium alcaliphilum 20Z; conditions: for Relative activity: control without effector = 100; for stimulation of enzyme activity: in the presence of the RuMP pathway intermediate
# Description: Methanotrophic pyruvate kinase-purification and characterization.
# (§1) Protein purification and characterization. Activities of key enzymes of the central metabolic pathways were measured as described. Pyruvate forming activity in cell-free extracts of M. alcaliphilus 20Z was also measured using Pyruvate Assay Kit (BioVision Inc. CA, USA). Recombinant pyruvate kinase PK-ubiqitin-His6 (“His6” disclosed as SEQ ID NO: 7) was obtained by cloning of the pyk2 gene (MALCv4_3080) in the vector pHUE and expressing in E. coli BL21 (DE3) cells growing in the presence of 0.5 mM IPTG for 5 hours at 37° C. PK-ubiqitin-His6 enzyme (“His6” disclosed as SEQ ID NO: 7) was purified by affinity chromatography on a Ni^2+-NTA column as described earlier.
# [2] = system: 20ZER; experiment: Accumulation of extracellular metabolites by the culture with an inhibitor of the cyt bc complex; assay type: cell-based, Methylomicrobium alcaliphilum; conditions: 20ZER + antimycin, dO2 ^ 40%
# Description: Cultivation and growth parameters. M. alcaliphilum 20Z cells were grown using a mineral salts medium in either closed vials (50 ml culture in 250 ml vials, with shaking at 200 rpm) or bioreactor cultures (fed-batch or chemostat; 1 L working volume in a two liter bench top BioFlo™ 110 modular bioreactors, New Brunswick Scientific, Edison, N.J.). Cells were grown at 28-30° C. Optical density of cell cultures was measured on a Beckman DU® 640B spectrophotometer in plastic 1.5 mL cuvettes with a 1 cm path length. Chemostat cultures maintained a steady-state optical density at 600 nm (OD600) of approximately 2.0±0.2. […] Samples of inflow and outflow gases were either collected daily in triplicates for gas analysis or were analyzed immediately every 15 minutes using a SRI 8610C™ Gas Chromatograph connected to a bioreactor unit. The rates of methane consumption and H2 production were determined by incubating cell samples (50 ml, OD600 between 2 and 4) in closed 250 ml vials for 12-60 h at 28° C. […]
# [3] = molecular target: pyruvate kinase 2 from M. alcaliphilum 20Z (Methylotuvimicrobium alcaliphilum, UniProt G4T2L7); assay type: biochemical, Methylomicrobium alcaliphilum 20Z; conditions: in the presence of 2.5 mM ribose-5-phosphate; read-out: S0.5 (used in place of Km, non Michaelis-Menten)
# Description: as §1
# Sequence of pyruvate kinase 2 from M. alcaliphilum 20Z (G4T2L7 entry or part of it): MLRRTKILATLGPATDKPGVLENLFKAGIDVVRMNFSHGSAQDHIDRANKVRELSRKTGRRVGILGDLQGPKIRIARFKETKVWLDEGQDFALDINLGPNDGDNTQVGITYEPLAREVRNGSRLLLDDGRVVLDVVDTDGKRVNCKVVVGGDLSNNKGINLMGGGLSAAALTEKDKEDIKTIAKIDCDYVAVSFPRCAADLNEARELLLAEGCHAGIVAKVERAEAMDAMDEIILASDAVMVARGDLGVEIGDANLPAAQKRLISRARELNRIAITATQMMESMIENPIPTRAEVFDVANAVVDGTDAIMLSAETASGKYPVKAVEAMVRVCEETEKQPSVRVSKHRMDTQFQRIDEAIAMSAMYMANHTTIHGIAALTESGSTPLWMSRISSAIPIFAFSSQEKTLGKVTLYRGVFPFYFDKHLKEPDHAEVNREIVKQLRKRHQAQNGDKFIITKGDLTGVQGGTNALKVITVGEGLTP
molecule,measurement,setting,value
O=C[C@H](O)[C@@H](O)[C@H](O)[C@H](O)COP(=O)(O)O [Glucose-6-phosphate],Relative activity,[1]; effector 5 mM,2545%
same,stimulation of enzyme activity,[1],20 fold
Nc1ncnc2c1ncn2[C@@H]1O[C@H](COP(=O)(O)OP(=O)(O)OP(=O)(O)O)[C@@H](O)[C@H]1O [ATP],effect on enzyme activity,[1],strongly inhibited
same,Relative activity,[1]; effector 0.5 mM,64%
same,Relative activity,[1]; effector 1 mM,32%
same,Relative activity,[1]; effector 2 mM,12%
O=C(O)CC(O)C(=O)O (centres unmarked) [Malate],Relative activity,[1]; effector 1 mM,82%
N[C@@H](CO)C(=O)O [Serine],Relative activity,[1]; effector 1 mM,133%
O=P(O)(O)O[C@H]1O[C@H](CO)[C@@H](O)[C@H]1O [Ribose-1-phosphate],Relative activity,[1]; effector 5 mM,92%
"O=P(O)(O)OP(=O)(O)O [PPi, pyrophosphate]",effect on enzyme activity,[1],strongly inhibited
same,Relative activity,[1]; effector 2 mM,14%
"O=P(O)(O)O [Pi, inorganic phosphate]",effect on enzyme activity,[1],strongly inhibited
same,Relative activity,[1]; effector 6 mM,11%
O=C(CO)[C@H](O)[C@H](O)COP(=O)(O)O [Ribulose-5-phosphate],Relative activity,[1]; effector 5 mM,1890%
same,stimulation of enzyme activity,[1],20 fold
O=C(COP(=O)(O)O)[C@@H](O)[C@H](O)[C@H](O)CO [Fructose-1-phosphate],Relative activity,[1]; effector 5 mM,270%
O=C[C@H](O)[C@H](O)[C@H](O)COP(=O)(O)O [Ribose-5-phosphate],"inhibitory effect of ATP, PPi and Pi after addition of the activator",[1],completely abolished
same,Relative activity,[1]; effector 5 mM,2092%
same,stimulation of enzyme activity,[1],20 fold
O=C[C@H](O)[C@H](O)COP(=O)(O)O [Erythrose-4-phosphate],Relative activity,[1]; effector 5 mM,740%
same,stimulation of enzyme activity,[1],20 fold
"O=C(COP(=O)(O)O)[C@@H](O)[C@H](O)[C@H](O)COP(=O)(O)O [Fructose-1,6-bisphosphate]",Relative activity,[1]; effector 5 mM,158%
O=C(O)CC(O)(CC(=O)O)C(=O)O [Citrate],Relative activity,[1]; effector 1 mM,140%
antimycin A,Accumulation of extracellular Acetate,[2],3955 ± 230 μmol L^−1 g^−1 CDW
same,Accumulation of extracellular Lactate,[2],437 ± 30 μmol L^−1 g^−1 CDW
[Cl-].[Cl-].[Mg+2] [MgCl2],Km,[3],1990 µM
O=C(O)[C@@H](CO)OP(=O)(O)O [2-phosphoglycerate],Relative activity,[1]; effector 2 mM,75%
O=P(O)(O)O[C@H]1O[C@H](CO)[C@@H](O)[C@H](O)[C@H]1O [Glucose-1-phosphate],Relative activity,[1]; effector 5 mM,67%
O=C(CO)[C@@H](O)[C@H](O)[C@H](O)COP(=O)(O)O [Fructose-6-phosphate],"inhibitory effect of ATP, PPi and Pi after addition of the activator",[1],completely abolished
same,Relative activity,[1]; effector 5 mM,2518%
same,stimulation of enzyme activity,[1],20 fold
Nc1ncnc2c1ncn2[C@@H]1O[C@H](COP(=O)(O)O)[C@@H](O)[C@H]1O [AMP],Relative activity,[1]; effector 2 mM,126%
